By inhibition is commonly meant the relative decrease from the control value, in per cent.

Structures are written as SMILES.

In one test the test system is Pythium ultimum. Description: Fungal growth inhibition, treated disc on agar (PYT ULT). The class given is cell-based. Conditions: Globisporangium ultimum, disc dipped in 500 mg/l, 29° C., read-out: Percent Growth Inhibition, PYT ULT.
Another test has as its system Pyricularia oryzae. Description: whole plant or invertebrate. The class given is in vivo. Conditions: Pyricularia oryzae, in Hordeum vulgare, foliar, 216 h, read-out: Percent Reduction of Disease, PYR ORY, barley, foliar, 1,000 mg/l.
The test system of the next test is Erysiphe graminis. Description: Powdery mildew of barley, systemic root uptake (BMS). The class given is in vivo. The note with it: 45 ml of 250 mg/l, 8 days after inoculation. As for the experimental part: Compositions containing Compounds Nos. 1-81 were prepared by dissolving 0.24 grams of each of the compounds in 8 ml of acetone or other suitable inert solvent. Each of the resultant solutions was treated with 3 drops of TWEEN 20 (ethoxylated ethylene sorbitan monolaurate, a non-ionic surfactant)(I.C.I.), and water was added to form an emulsion. The degree of dilution with water was dictated by the desired concentration of the compound in the composition. The greater the quantity of water added, the lower the concentration of the compound in the composition, reported in milligrams per liter (mg/l) […] Upon reaching these ages, the plants were either treated with 45 ml of 250 mg/l concentration of the compositions of Example 9 or were left untreated. The untreated plants were used as controls. The 45 ml compositions saturated the soil of the treated pots without significant loss through drainage into the saucers below the pots. Twenty-four hours after the treatment with the compositions, both the barley and cucumber plants in all the pots, those treated and those untreated, were inoculated with powdery mildew fungus. This was accomplished by tapping leaves of previously infected barley and cucumber plants over the treated and untreated pots containing the barley and cucumber plants, respectively, to distribute spores of the fungus over the plants tested. […] Intermediate ratings were assigned depending on the degree of disease. […] The results of the powdery mildew disease control of barley are reported under the heading of "BMS". The results for cucumber mildew control are reported under the heading "CMS".

Another test deals with Colletotrichum gossypii. In words: Fungal growth inhibition, treated disc on agar (COL GOS). The class given is cell-based. Conditions: Colletotrichum gossypii, disc dipped in 500 mg/l, 29° C., read-out: Percent Growth Inhibition, COL GOS.
In a further test the test system is Scierotinia minor. Description: Fungal growth inhibition, treated disc on agar (SCL MIN). The class given is cell-based. Conditions: disc dipped in 500 mg/l, 29° C., read-out: Percent Growth Inhibition, SCL MIN.
The subject of the next test is Erysiphe polygoni. In words: Powdery mildew on pinto bean, foliar application (ERY POL). Conditions: Erysiphe polygoni, similar procedure as barley (1,000 mg/l), read-out: Percent Reduction of Disease, ERY POL. The class given is in vivo. The method, then:
Compositions containing Compounds Nos. 1-81 were prepared by dissolving 0.24 grams of each of the compounds in 8 ml of acetone or other suitable inert solvent. Each of the resultant solutions was treated with 3 drops of TWEEN 20 (ethoxylated ethylene sorbitan monolaurate, a non-ionic surfactant)(I.C.I.), and water was added to form an emulsion. The degree of dilution with water was dictated by the desired concentration of the compound in the composition. The greater the quantity of water added, the lower the concentration of the compound in the composition, reported in milligrams per liter (mg/l) Ten plants of "Robust" variety barley were planted in each of a plurality of pots. Each pot was then either sprayed with one of the compositions of Example 9, at a composition concentration of 1,000 mg/l, or left unsprayed. For each pot sprayed, one pot was left unsprayed as a control. After the leaves of the sprayed pots were dried, the sprayed pots and the unsprayed control pots were placed in a greenhouse maintained at 21° C. All the pots were then inoculated with barley powdery mildew fungus, Erysiphe graminis. This inoculation was accomplished by distributing spores of the fungus over the leaves of the plants to be tested from plants which had previously been infected with the mildew disease. […] Again, percent control was computed by comparing the treatment scores with the scores of the untreated controls. The results are summarized in Table II under the heading "ERY GRA". Using a similar procedure as described above for the barley, pinto bean plants were prepared, treated and inoculated with the fungus Erysiphe polygoni. The results of this testing are summarized in Table II under the heading "ERY POL".

Another test relates to Rhizoctonia solani. In words: Fungal growth inhibition, treated disc on agar (RHI SOL). The note with it: Rhizoctonia solani, disc dipped in 500 mg/l, 29° C., read-out: Percent Growth Inhibition, RHI SOL. The class given is cell-based.
A further test concerns Helminthosporium sativum. Description: Barley spot blotch, foliar treatment (HEL SAT). The class given is in vivo. Conditions: Helminthosporium, foliar, 216 h, foliar, 1,000 mg/l, read-out: Percent Reduction of Disease, HEL SAT. The method, then: Compositions containing Compounds Nos. 1-81 were prepared by dissolving 0.24 grams of each of the compounds in 8 ml of acetone or other suitable inert solvent. Each of the resultant solutions was treated with 3 drops of TWEEN 20 (ethoxylated ethylene sorbitan monolaurate, a non-ionic surfactant)(I.C.I.), and water was added to form an emulsion. The degree of dilution with water was dictated by the desired concentration of the compound in the composition. The greater the quantity of water added, the lower the concentration of the compound in the composition, reported in milligrams per liter (mg/l) Ten plants of six day-old Barley (variety "Robust") were planted in each of a plurality of pots. Each pot was then either sprayed with one of the compositions of Example 9, at a concentration of 1,000 mg/l, or left unsprayed. The unsprayed plants were used as controls. An equal number of pots were sprayed and unsprayed. All plants, sprayed and unsprayed, were thereafter inoculated with spores of the blotch fungus Helminthosporium sativum. All inoculated plants were placed in a 99% humidity chamber for 24 hours and then placed in a greenhouse, maintained at a temperature of 21° C., for eight days. […] Percent control was computed and the results are summarized in Table II under the heading "HEL SAT".

Excerpt for Rhizoctonia solani: (§1) Filter paper discs, each 11 mm. in diameter, were dipped in each of the test solutions. The discs were allowed to air dry to drive off the acetone solvent. A number of untreated discs were used as controls.
(§2) The treated and untreated discs were then placed on agar plates and one of the following fungus species: Septoria nodorum (SEP NOD), Botrytis cinerea (BOT CIN), Fusarium oxysporum (FUS OXY), Pythium ultimum (PYT ULT), Rhizoctonia solani (RHI SOL), Colletotrichum gossypii (COL GOS), and Scierotinia minor (SCL MIN), was added to the center of each disc in the form of a culture plug with the fungus mat in contact with the paper of the test disc. Cercosporidium personatum (CER PER), was added to discs as a spore suspension (20,000 spores/ml) to the disc (two drops of spore suspension per disc), rather than a mycelial culture plug. The plates were then incubated at 29° C. in an oven.
(§3) With the exception of the discs containing Cercosporidium personatum, the discs were evaluated by first measuring the radius from the center of the fungus colony on the treated discs and on the untreated discs. Percent growth inhibition of each of the compounds tested was determined as a function of the difference between the radius of the fungus colony on the treated disc versus the radius of the fungus colony on the untreated disc.
Excerpt for Scierotinia minor: as §1, §2, §3

On to `N#CC(CCc1ccccc1)(CCc1ccccc1)c1cccnc1` [A, reference compound], for which the inhibition at 500 µg/mL amounted to 10% with Pythium ultimum, 25% with Colletotrichum gossypii, 10% in the test on Scierotinia minor and 10% with Rhizoctonia solani. Further, the figures for the pest or weed control at 1000 µg/mL in the test with Pyricularia oryzae, in the test with Erysiphe polygoni and in the test with Helminthosporium sativum were 10%, 15% and 60%, respectively. The “Percent Reduction of Disease, BMS” value with Erysiphe graminis is given as 15%.

In the case of `CC(C)(C)c1ccc(CC(C#N)(Cc2ccc(C(C)(C)C)cc2)c2cccnc2)cc1` [B, reference compound], the inhibition at 500 µg/mL turned out to be 15% in the test on Pythium ultimum, 0% in the test with Colletotrichum gossypii, 60% in the test with Scierotinia minor and 15% in the test with Rhizoctonia solani. Moreover, the “Percent Reduction of Disease, BMS” value with Erysiphe graminis is 10%. For the same compound, the pest or weed control at 1000 µg/mL in the test with Erysiphe polygoni and in the test with Helminthosporium sativum was 0% each time.

Consider `CCCC(C#N)(CCc1ccccc1)c1cccnc1` (centres unmarked) [Compound 1], for which the inhibition at 500 µg/mL came to 40% in the test on Pythium ultimum, 100% in the test with Colletotrichum gossypii, 100% in the test with Scierotinia minor and 95% with Rhizoctonia solani. Also, the pest or weed control at 1000 µg/mL with Pyricularia oryzae is 0%; in the test with Erysiphe polygoni it was 95%; in the test on Helminthosporium sativum, 65%. For the same compound, in the test with Erysiphe graminis, the “Percent Reduction of Disease, BMS” value is given as 60%.

Regarding `CCCCCCCC(C#N)(CCc1ccccc1)c1cccnc1` (centres unmarked) [Compound 2], the inhibition at 500 µg/mL with Pythium ultimum amounted to 0%; in the test with Colletotrichum gossypii it was 60%; with Scierotinia minor, 100%; with Rhizoctonia solani, 0%. The pest or weed control at 1000 µg/mL with Pyricularia oryzae was found to be 45%; in the test on Erysiphe polygoni it was 100%; in the test on Helminthosporium sativum, 80%. Moreover, the “Percent Reduction of Disease, BMS” value in the test with Erysiphe graminis came out at 0%.

For the compound `CCCCCC(C#N)(CCc1ccccc1)c1cccnc1` (centres unmarked) [Compound 3], the inhibition at 500 µg/mL with Pythium ultimum stood at 5%; in the test with Colletotrichum gossypii, 97%; in the test on Scierotinia minor it was 100%; with Rhizoctonia solani, 10%. Further, the pest or weed control at 1000 µg/mL with Pyricularia oryzae, with Erysiphe polygoni and in the test on Helminthosporium sativum was 100% in each case. In the test with Erysiphe graminis, the “Percent Reduction of Disease, BMS” value is 35%.

Regarding `C#CCC(C#N)(CCc1ccccc1)c1cccnc1` (centres unmarked) [Compound 4], the inhibition at 500 µg/mL in the test on Pythium ultimum came to 100%; in the test with Colletotrichum gossypii it was 100%; in the test on Scierotinia minor it was 98%; in the test with Rhizoctonia solani, 82%. Further, the pest or weed control at 1000 µg/mL in the test on Pyricularia oryzae is 50%; with Erysiphe polygoni, 90%; in the test on Helminthosporium sativum it was 0%. The “Percent Reduction of Disease, BMS” value with Erysiphe graminis came out at 35%.

In the case of `C=CCC(C#N)(CCc1ccccc1)c1cccnc1` (centres unmarked) [Compound 5], the inhibition at 500 µg/mL in the test on Pythium ultimum was 82%; in the test with Colletotrichum gossypii, 97%; with Scierotinia minor, 95%; with Rhizoctonia solani, 100%. Also, the pest or weed control at 1000 µg/mL in the test with Pyricularia oryzae was determined as 83%; in the test on Erysiphe polygoni, 90%; in the test on Helminthosporium sativum, 70%. The “Percent Reduction of Disease, BMS” value in the test with Erysiphe graminis turned out to be 85%.

Regarding `COCC(C#N)(CCc1ccccc1)c1cccnc1` (centres unmarked) [Compound 6], the inhibition at 500 µg/mL turned out to be 50% in the test with Pythium ultimum, 95% in the test on Colletotrichum gossypii, 100% with Scierotinia minor and 50% with Rhizoctonia solani. In addition, the pest or weed control at 1000 µg/mL was 0% in the test on Pyricularia oryzae, 100% in the test on Erysiphe polygoni and 100% with Helminthosporium sativum. Moreover, the “Percent Reduction of Disease, BMS” value in the test with Erysiphe graminis is recorded as 100%.

Regarding `CC(C)CC(C#N)(CCc1ccccc1)c1cccnc1` (centres unmarked) [Compound 7], the inhibition at 500 µg/mL was determined as 35% with Pythium ultimum, 89% in the test with Colletotrichum gossypii, 10% in the test on Scierotinia minor and 94% in the test on Rhizoctonia solani. Further, the values for the pest or weed control at 1000 µg/mL in the test on Pyricularia oryzae, in the test with Erysiphe polygoni and in the test on Helminthosporium sativum were 83%, 100% and 70%, respectively. Also, the “Percent Reduction of Disease, BMS” value in the test with Erysiphe graminis came to 35%.

Regarding `CC(C)=CCC(C#N)(CCc1ccccc1)c1cccnc1` (centres unmarked) [Compound 8], the inhibition at 500 µg/mL with Pythium ultimum came out at 35%; in the test on Colletotrichum gossypii, 95%; in the test with Scierotinia minor, 100%; with Rhizoctonia solani, 45%. Further, the pest or weed control at 1000 µg/mL in the test with Pyricularia oryzae came to 0%; with Erysiphe polygoni, 99%; with Helminthosporium sativum it was 100%. For the same compound, the “Percent Reduction of Disease, BMS” value in the test on Erysiphe graminis is 45%.

As for `C=CCC(C#N)(CCc1ccc(F)cc1)c1cccnc1` (stereo not drawn) [Compound 9, 4-fluoro-α-(2-propenyl)-α-(3-pyridinyl)benzenebutanenitrile], the inhibition at 500 µg/mL in the test on Pythium ultimum is 35%; in the test with Colletotrichum gossypii, 100%; in the test with Scierotinia minor, 98%; in the test on Rhizoctonia solani, 95%. In addition, the pest or weed control at 1000 µg/mL with Pyricularia oryzae turned out to be 70%; in the test with Erysiphe polygoni it was 99%; in the test with Helminthosporium sativum, 85%. Further, the “Percent Reduction of Disease, BMS” value in the test with Erysiphe graminis is 40%.

Turning to `CCCCC(C#N)(CCc1ccc(C)cc1)c1cccnc1` (centres unmarked) [Compound 34], the results for the inhibition at 500 µg/mL in the test on Pythium ultimum, in the test on Colletotrichum gossypii and with Scierotinia minor were 0%, 100% and 100%, respectively. For the same compound, the results for the pest or weed control at 1000 µg/mL in the test on Pyricularia oryzae, with Erysiphe polygoni and with Helminthosporium sativum were 0%, 100% and 100%, respectively. Moreover, the “Percent Reduction of Disease, BMS” value in the test with Erysiphe graminis is reported as 0%.

Turning to `C=C(Cl)CC(C#N)(CCc1ccc(F)cc1)c1cccnc1` (centres unmarked) [Compound 65], the inhibition at 500 µg/mL in the test on Pythium ultimum was determined as 100%; in the test with Colletotrichum gossypii it was 100%; with Scierotinia minor, 100%; in the test on Rhizoctonia solani, 30%. The “Percent Reduction of Disease, BMS” value in the test with Erysiphe graminis is given as 0%. Also, the pest or weed control at 1000 µg/mL in the test on Erysiphe polygoni and in the test on Helminthosporium sativum was 100% in each case.

Take `Cc1ccc(CCC(C#N)(CCCF)c2cccnc2)cc1` (centres unmarked) [Compound 81]: the inhibition at 500 µg/mL in the test on Pythium ultimum came out at 20%; with Colletotrichum gossypii it was 20%; in the test on Scierotinia minor, 0%; in the test on Rhizoctonia solani, 5%. In addition, the “Percent Reduction of Disease, BMS” value with Erysiphe graminis is 0%. The pest or weed control at 1000 µg/mL in the test on Erysiphe polygoni amounted to 100%.

The values above are taken from patent US5945436A, “Pyridylmethyl nitriles, amides and thioamides useful as fungicides” (Uniroyal Chemical Company, Inc., priority 1997, dated 1999).
